Measurements published in patent US20230053540A1, “TREATMENT OF LIVER INJURY” (Massachusetts Institute of Technology, priority 2019, published 2023).

System: hepatocytes
Assay: Seq-Well scRNA-Seq of hepatocytes after APAP overdose (signature scores, DEG vs untreated)
Type: in vivo, mouse
Conditions: A6 vs UT

CC(=O)Nc1ccc(O)cc1 [APAP, acetaminophen]
Med13 A6logFC: 0.2949
Med13 avg_logFC: 0.2949
Med13 pct.1: 0.325
Megf9 A6logFC: 0.2769
Megf9 avg_logFC: 0.2769
Megf9 pct.1: 0.289
Mettl7b avg_logFC: −0.4527
Mettl7b pct.1: 0.647
Mettl20 avg_logFC: −0.3314
Mettl20 pct.1: 0.119
Mfsd2a avg_logFC: 0.6661
Mgea5 A6logFC: 0.3263
Mgea5 avg_logFC: 0.3263
Mgea5 pct.1: 0.413
Mgst1 avg_logFC: −1.06
Minos1 avg_logFC: −0.4555
Minos1 pct.1: 0.332
Mlycd avg_logFC: −0.2909
Mlycd pct.1: 0.329
Mmp8 avg_logFC: 0.359
Mmp14 avg_logFC: 0.2889
Mmp14 pct.1: 0.253
Mpc2 avg_logFC: −0.4828
Mpc2 pct.1: 0.599
Mpeg1 avg_logFC: 0.4935
Mpeg1 pct.1: 0.263
Mrap avg_logFC: 0.8841
Mrp63 avg_logFC: −0.4422
Mrp63 pct.1: 0.277
Mrpl11 A6logFC: −0.2685
Mrpl15 A6logFC: −0.2912
Mrpl20 A6logFC: −0.3093
Mrpl20 avg_logFC: −0.3093
Mrpl20 pct.1: 0.301
Mrpl28 A6logFC: −0.2699
Mrpl28 avg_logFC: −0.2699
Mrpl28 pct.1: 0.229
Mrpl33 A6logFC: −0.2654
Mrpl34 A6logFC: −0.2838
Mrpl41 A6logFC: −0.2674
Mrpl42 A6logFC: −0.2845
Mrps12 A6logFC: −0.2504
Mrps12 avg_logFC: −0.2504
Mrps12 pct.1: 0.193
Mrps24 avg_logFC: −0.3904
Mrps24 pct.1: 0.31
Msrb1 avg_logFC: −0.599
Mt1 avg_logFC: 2.388
Mt2 avg_logFC: 2.063
Mthfd2 avg_logFC: 0.2624
Mug2 avg_logFC: 0.3683
Mug2 pct.1: 0.776
Mup3 avg_logFC: −0.7035
Mup4 avg_logFC: −0.9953
Mup5 avg_logFC: −1.237
Mup6 avg_logFC: −1.872
Mup7 avg_logFC: −0.9414
Mup8 avg_logFC: −0.7526
Mup8 pct.1: 0.098
Mup9 avg_logFC: −2.004
Mup11 avg_logFC: −3.214
Mup12 avg_logFC: −1.27
Mup15 avg_logFC: −1.316
Mup16 avg_logFC: −1.602
Mup17 avg_logFC: −2.354
Mup18 avg_logFC: −1.628
Mup19 avg_logFC: −2.396
Mup21 avg_logFC: −0.8272
Mvd A6logFC: −0.2704
Mxd1 A6logFC: 0.2978
Mybbp1a avg_logFC: 0.4312
Mybbp1a pct.1: 0.396
Myeov2 A6logFC: −0.3052
Myeov2 avg_logFC: −0.3052
Myeov2 pct.1: 0.303
Myh9 avg_logFC: 1.16
Myl12a avg_logFC: 0.3908
Myl12a pct.1: 0.461
Myo1b A6logFC: 0.2624
Myo1e avg_logFC: 0.6143
Naa50 A6logFC: 0.2657
Naa50 avg_logFC: 0.2657
Naa50 pct.1: 0.444
Naprt1 A6logFC: −0.3381
Nars avg_logFC: 0.4378
Nars pct.1: 0.606
Ncl avg_logFC: 0.4845
Ncl pct.1: 0.69
Ndufa2 avg_logFC: −0.3965
Ndufa2 pct.1: 0.492
Ndufa3 avg_logFC: −0.4116
Ndufa3 pct.1: 0.344
Ndufa4 avg_logFC: −0.6831
Ndufa5 A6logFC: −0.252
Ndufa5 avg_logFC: −0.252
Ndufa5 pct.1: 0.418
Ndufa6 avg_logFC: −0.6136
Ndufa7 avg_logFC: −0.5559
Ndufa7 pct.1: 0.406
Ndufa13 avg_logFC: −0.4388
Ndufa13 pct.1: 0.549
Ndufb3 A6logFC: −0.3272
Ndufb6 avg_logFC: −0.5077
Ndufb6 pct.1: 0.475
Ndufb9 avg_logFC: −0.5038
Ndufb9 pct.1: 0.661
Ndufb10 A6logFC: −0.3004
Ndufc2 avg_logFC: −0.4253
Ndufc2 pct.1: 0.36
Ndufs4 A6logFC: −0.3132
Ndufs6 avg_logFC: −0.5379
Ndufs6 pct.1: 0.482
Ndufv2 A6logFC: −0.3276
Ndufv2 avg_logFC: −0.3276
Ndufv2 pct.1: 0.461
Neat1 avg_logFC: 0.6374
Neat1 pct.1: 0.31
Nek7 A6logFC: 0.2911
Nek7 avg_logFC: 0.2911
Nek7 pct.1: 0.394
Net1 A6logFC: 0.3479
Nid1 avg_logFC: 0.3426
Nit2 avg_logFC: −0.4859
Nit2 pct.1: 0.301
Nolc1 avg_logFC: 0.4722
Nolc1 pct.1: 0.363
Nop56 avg_logFC: 0.2657
Nop56 pct.1: 0.282
Nop58 avg_logFC: 0.6634
Nploc4 A6logFC: 0.2918
Nploc4 avg_logFC: 0.2918
Nploc4 pct.1: 0.351
Nqo2 A6logFC: −0.2678
Nqo2 avg_logFC: −0.2678
Nqo2 pct.1: 0.317
Nr0b2 avg_logFC: −0.293
Nr0b2 pct.1: 0.086
Nr1i3 avg_logFC: −0.4127
Nr1i3 pct.1: 0.165
Nr2f6 avg_logFC: −0.3754
Nr2f6 pct.1: 0.234
Nrip1 avg_logFC: 0.2729
Nrip1 pct.1: 0.246
Nucks1 A6logFC: 0.3558
Nudt4 A6logFC: 0.2542
Nudt7 avg_logFC: −1.564
Oaf avg_logFC: −0.7329
Oat avg_logFC: −1.225
PM20l1 avg_logFC: 0.3085
PM20l1 pct.1: 0.372
Pa2g4 A6logFC: 0.2893
Pa2g4 avg_logFC: 0.2893
Pa2g4 pct.1: 0.492
Pabpc1 avg_logFC: 0.4101
Pabpc1 pct.1: 0.697
Pah avg_logFC: −0.5221
Pak2 avg_logFC: 0.2815
Pak2 pct.1: 0.308
Papss2 A6logFC: −0.2545
Papss2 avg_logFC: −0.2545
Papss2 pct.1: 0.337
Paqr9 A6logFC: −0.3323
Park7 avg_logFC: −0.2602
Park7 pct.1: 0.601
Pbld1 avg_logFC: −0.4425
Pbld1 pct.1: 0.315
Pcbd1 avg_logFC: −0.6878
Pck1 avg_logFC: −0.6522
Pcm1 A6logFC: 0.2654
Pcm1 avg_logFC: 0.2654
Pcm1 pct.1: 0.274
Pde3b A6logFC: −0.259
Pde3b avg_logFC: −0.259
Pde3b pct.1: 0.243
Pdia4 avg_logFC: −0.2719
Pdia4 pct.1: 0.43
Pdia6 avg_logFC: −0.39
Pdia6 pct.1: 0.47
Pdzd8 A6logFC: 0.2863
Pdzd8 avg_logFC: 0.2863
Pdzd8 pct.1: 0.36
Pecr avg_logFC: −0.3981
Pecr pct.1: 0.446
Pet100 A6logFC: −0.28
Pfkfb2 avg_logFC: 0.29
Pfkfb2 pct.1: 0.26
Pgls A6logFC: −0.2747
Pgls avg_logFC: −0.2747
Pgls pct.1: 0.22
Phf20l1 A6logFC: 0.3085
Phlda1 avg_logFC: 0.5492
Pi4k2a A6logFC: 0.3536
Picalm avg_logFC: 0.7545
Pigr avg_logFC: 0.3487
Pigr pct.1: 0.947
Pkp4 A6logFC: 0.323
Pkp4 avg_logFC: 0.323
Pkp4 pct.1: 0.401
Pla2g7 avg_logFC: 0.2823
Pla2g7 pct.1: 0.119
Plbd2 A6logFC: 0.2649
Plbd2 avg_logFC: 0.2649
